Assay results taken from patent publication US5135937A, “Cycloalkylene azoles and pharmaceutical preparations obtained therefrom” (Schering Aktiengesellschaft, priority 1989, dated 1992).
Several values for one entry are separate records, joined by “and”; a condition that tells them apart may be missing. Identical values can stand only once. Counter-ions that a name gives are not always drawn. Like-named read-outs stand apart in the source and are kept apart here.

Tests used:
[1] = test system: Androstenedione-Induced Uterus Growth; test: Influence on androstenedione-induced uterus growth in infantile rats (Test b); type: in vivo, rat; conditions: 3 days; for Uterus Weight: infantile female rats; for Inhibition in % (of uterus growth, based on the androstenedione group): vehicle basic value deducted
Method: (§1) The following compounds are examined as representative:
Influence on Androstenedione-Induced Uterus Growth in Infantile Rats
Infantile female rats receive once daily the compound to be tested in combination with androstenedione over a period of three days. One group receives only androstenedione, and a further group only the vehicle. One day after the last treatment, the animals are sacrificed by decapitation and exsanguination, and the fresh uterus weights (without content) are determined. The uterus weights are calculated for mg/100 g body weight. The average value and standard deviation are calculated for each group. Variance analysis is used to check the significances of the differences with respect to the control group (androstenedione group and, respectively, vehicle group). Furthermore, the percentage inhibition of uterus growth is determined, based on the androstenedione group. In this determination, the uterus weight of the vehicle group (basic value) is deducted from the corresponding weight of the androstenedione group. The individual dosage groups, after subtracting the basic value, are based on the thus-obtained value.

[2] = biological target: T1, aromatase (Homo sapiens, UniProt P11511); test: Aromatase inhibition in human placenta (Test a): microsomes, release of 3H2O from [1β-3H]-androstenedione, Ki by Dixon plot; type: biochemical
T1 construct: microsomes obtained from human placenta; from tissue; host or cells: human placenta (microsomes)
T1 sequence (P11511 1-503): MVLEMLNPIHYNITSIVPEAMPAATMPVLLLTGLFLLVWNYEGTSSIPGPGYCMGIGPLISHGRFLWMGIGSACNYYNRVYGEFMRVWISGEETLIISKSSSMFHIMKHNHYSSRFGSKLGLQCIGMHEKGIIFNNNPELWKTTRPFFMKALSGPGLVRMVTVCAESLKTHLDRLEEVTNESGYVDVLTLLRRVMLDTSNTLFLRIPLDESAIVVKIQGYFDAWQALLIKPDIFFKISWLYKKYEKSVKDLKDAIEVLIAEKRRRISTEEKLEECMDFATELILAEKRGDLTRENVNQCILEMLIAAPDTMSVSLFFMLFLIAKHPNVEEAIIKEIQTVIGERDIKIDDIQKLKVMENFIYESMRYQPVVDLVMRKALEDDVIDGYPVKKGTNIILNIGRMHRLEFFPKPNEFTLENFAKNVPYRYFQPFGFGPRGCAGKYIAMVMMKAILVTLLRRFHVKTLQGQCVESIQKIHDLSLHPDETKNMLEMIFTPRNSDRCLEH
Method: as §1
Aromatase Inhibition in Human Placenta
The abilities of the compounds of inhibiting the enzyme system of aromatase is tested on microsomes obtained from human placenta.

[3] = compound + AD, 0.2 + 30 mg/kg/day, hydrochloride, 30 mg/kg/day
[4] = compound + AD, 2.0 + 30 mg/kg/day
[5] = compound + AD, 0.2 + 30 mg/kg/day
[6] = human placenta microsomes, [1β-3H]-androstenedione substrate, 4-OH-androstenedione as reference compound, read-out: Ki, Aromatase

SMILES	Uterus Weight [1, 4] [mg/100 g BW]	Inhibition in % (of uterus growth, based on the androstenedione group) [1, 4] [%]	Ki [2, 6] [nM]	also measured
N#Cc1ccc(C2CCCc3cncn32)cc1 (racemic) [D, 5-(p-cyanophenyl)-5,6,7,8tetrahydroimidazo[-1,5a]pyridine, hydrochloride, reference compound]				Uterus Weight [1, 3]: 69.9 ± 6.6 mg/100 g BW and 83.2 ± 6.9 mg/100 g BW; Inhibition in % (of uterus growth, based on the androstenedione group) [1, 3]: 84% and 86%
C[C@]12CCC(=O)C(O)=C1CC[C@@H]1[C@@H]2CC[C@]2(C)C(=O)CC[C@@H]12 [4-OH-Androstenedione, reference compound]				Ki ([2]; Ki, Aromatase): 62 nM and 41 nM
C[C@]12CCC(=O)C=C1CC[C@@H]1[C@@H]2CC[C@]2(C)C(=O)CC[C@@H]12 [Androstenedione, reference compound]				Uterus Weight ([1]; androstenedione (AD) alone 30 mg/kg/day): 213.6 ± 32.4 mg/100 g BW and 183.5 ± 22.7 mg/100 g BW
N#Cc1ccc(C(=C2CCCC2)n2ccnc2)cc1 [C, 4-[1-Cyclopentylidene-1-(1-imidazolyl)methyl]benzonitrile]	69.2 ± 5.7	85		
Cl.N#Cc1ccc(C(=C2CCCCC2)n2ccnc2)cc1 [Compound A, 4-[1-Cyclohexylidene-1-(1-imidazolyl)methyl]benzonitrile, hydrochloride]	100.1 ± 18.8	74	0.19	Uterus Weight [1, 5]: 108.2 ± 11.9 mg/100 g BW; Inhibition in % (of uterus growth, based on the androstenedione group) [1, 5]: 69%
N#Cc1ccc(C(=C2CCCCC2)n2ccnc2)cc1 [Compound B, 4-[1-Cyclohexylidene-1-(1-imidazolyl)methyl]benzonitrile]	72.5 ± 10.3	82	0.48	
